Measurements from patent US20250172566A1, “SACCHARIDE SENSING SYSTEMS” (CARBOMETRICS LIMITED, priority 2022, published 2025).

Assay: Fluorescent solution phase glucose responsive assay (pH 7.4, 298 K)
Details: Ex 470 nm
Protocol: Fluorescence spectroscopy was performed on either a HORIBA Duetta or BMG Labtech CLARIOstar plus plate reader. Emission spectra were obtained using the appropriate excitation wavelength and at a temperature of either 298 or 310 K and at pH 7.4 unless otherwise stated. Data collection and analysis were performed using EzSpec software by HORIBA or CLARIOstar MARS software by BMG Labtech. Further analysis and processing were performed in Microsoft Excel.
A solution of GBM and FIM at the required concentrations were created in the appropriate media. The emission spectrum of the assay was then acquired by exciting at the designated excitation wavelength to obtain the baseline emission intensity for the assay. Aliquots of 2 M D-glucose (in the same media) were then added to give the required final glucose concentrations (e.g. 15 μL of 2 M D-glucose in 3 mL gives a final D-glucose concentration of 10 mM) and the assay allowed to reach equilibration. The emission spectra were collected after each addition of D-glucose and compared to the original baseline emission, monitoring at the typical emission maximum (Emmax), and the percentage increase or decrease recorded. Emission spectra acquired on either a Horiba Duetta fluorometer or Clariostar plus plate reader.
The glucose responsive fluorescence emission for different combinations of glucose binding molecules (GBM) and fluorescent inhibitor molecules (FIM) at various concentrations and in various media was tested as described above. All results obtained at pH 7.4 and 298 K unless otherwise stated.
All results obtained at pH 7.4 and 298 K unless otherwise stated.
Table 4 provides the composition of the assay media used as the code assigned to each media as used in Tables 1 to 3.

SMILES: Cc1ccc2n1[B-](F)(F)[N+]1=C(/C=C/c3ccc(C(=O)O)cc3)C=CC1=C2c1ccccc1OCc1cn(CCOCCOCCOCCO[C@@H]2O[C@H](CO)[C@@H](O)[C@H](O)[C@H]2O)nn1 [FIM31]
- Change in Emmax for FIM at a particular D-glucose concentration (20 mM D-glucose, GBM22 5 μM, FIM 1 μM, medium A, Emmax 590 nm): 90%

SMILES: CC(C)(C)OC(=O)N[C@@H](Cc1cn(CCCC[C@@H](C(=O)Nc2ccc(CCO[C@@H]3O[C@H](CO)[C@@H](O)[C@H](O)[C@H]3O)cc2)[N+](C)(C)C)nn1)C(=O)NCCOCCOCCOCCn1cc(CNC(=O)c2ccc3c(c2)C(=O)OC32c3ccc(O)cc3Oc3cc(O)ccc32)nn1 [FIM32]
- Change in Emmax for FIM at a particular D-glucose concentration (5 mM D-glucose, GBM15 10 μM, FIM 1 μM, medium B, Emmax 520 nm): 170%
- Change in Emmax for FIM at a particular D-glucose concentration (5 mM D-glucose, GBM15 50 μM, FIM 0.5 μM, medium B, Emmax 520 nm): 140%
- Change in Emmax for FIM at a particular D-glucose concentration (5 mM D-glucose, GBM15 50 μM, FIM 5 μM, medium B, Emmax 520 nm): 110%
- Change in Emmax for FIM at a particular D-glucose concentration (5 mM D-glucose, GBM15 50 μM, FIM 10 μM, medium B, Emmax 520 nm): 110%
- Change in Emmax for FIM at a particular D-glucose concentration (5 mM D-glucose, GBM15 100 μM, FIM 1 μM, medium B, Emmax 520 nm): 95%
- Change in Emmax for FIM at a particular D-glucose concentration (5 mM D-glucose, GBM15 200 μM, FIM 2 μM, medium B, Emmax 520 nm): 85%
- Change in Emmax for FIM at a particular D-glucose concentration (5 mM D-glucose, GBM15 200 μM, FIM 5 μM, medium B, Emmax 520 nm): 50%
- Change in Emmax for FIM at a particular D-glucose concentration (5 mM D-glucose, GBM15 200 μM, FIM 10 μM, medium B, Emmax 520 nm): 50%
- Change in Emmax for FIM at a particular D-glucose concentration (10 mM D-glucose, GBM15 10 μM, FIM 1 μM, medium B, Emmax 520 nm): 190%
- Change in Emmax for FIM at a particular D-glucose concentration (10 mM D-glucose, GBM15 50 μM, FIM 0.5 μM, medium B, Emmax 520 nm): 195%
- Change in Emmax for FIM at a particular D-glucose concentration (10 mM D-glucose, GBM15 50 μM, FIM 5 μM, medium B, Emmax 520 nm): 155%
- Change in Emmax for FIM at a particular D-glucose concentration (10 mM D-glucose, GBM15 50 μM, FIM 10 μM, medium B, Emmax 520 nm): 145%
- Change in Emmax for FIM at a particular D-glucose concentration (10 mM D-glucose, GBM15 100 μM, FIM 1 μM, medium B, Emmax 520 nm): 135%
- Change in Emmax for FIM at a particular D-glucose concentration (10 mM D-glucose, GBM15 200 μM, FIM 2 μM, medium B, Emmax 520 nm): 115%
- Change in Emmax for FIM at a particular D-glucose concentration (10 mM D-glucose, GBM15 200 μM, FIM 5 μM, medium B, Emmax 520 nm): 85%
- Change in Emmax for FIM at a particular D-glucose concentration (10 mM D-glucose, GBM15 200 μM, FIM 10 μM, medium B, Emmax 520 nm): 85%
- Change in Emmax for FIM at a particular D-glucose concentration (20 mM D-glucose, GBM15 10 μM, FIM 1 μM, medium B, Emmax 520 nm): 200%
- Change in Emmax for FIM at a particular D-glucose concentration (20 mM D-glucose, GBM15 50 μM, FIM 0.5 μM, medium B, Emmax 520 nm): 240%
- Change in Emmax for FIM at a particular D-glucose concentration (20 mM D-glucose, GBM15 50 μM, FIM 5 μM, medium B, Emmax 520 nm): 185%
- Change in Emmax for FIM at a particular D-glucose concentration (20 mM D-glucose, GBM15 50 μM, FIM 10 μM, medium B, Emmax 520 nm): 190%
- Change in Emmax for FIM at a particular D-glucose concentration (20 mM D-glucose, GBM15 100 μM, FIM 1 μM, medium B, Emmax 520 nm): 160%
- Change in Emmax for FIM at a particular D-glucose concentration (20 mM D-glucose, GBM15 200 μM, FIM 2 μM, medium B, Emmax 520 nm): 145%
- Change in Emmax for FIM at a particular D-glucose concentration (20 mM D-glucose, GBM15 200 μM, FIM 5 μM, medium B, Emmax 520 nm): 125%
- Change in Emmax for FIM at a particular D-glucose concentration (20 mM D-glucose, GBM15 200 μM, FIM 10 μM, medium B, Emmax 520 nm): 115%
- Change in Emmax for FIM at a particular D-glucose concentration (40 mM D-glucose, GBM15 10 μM, FIM 1 μM, medium B, Emmax 520 nm): 220%
- Change in Emmax for FIM at a particular D-glucose concentration (40 mM D-glucose, GBM15 50 μM, FIM 0.5 μM, medium B, Emmax 520 nm): 265%
- Change in Emmax for FIM at a particular D-glucose concentration (40 mM D-glucose, GBM15 50 μM, FIM 5 μM, medium B, Emmax 520 nm): 205%
- Change in Emmax for FIM at a particular D-glucose concentration (40 mM D-glucose, GBM15 100 μM, FIM 1 μM, medium B, Emmax 520 nm): 220%
- Change in Emmax for FIM at a particular D-glucose concentration (40 mM D-glucose, GBM15 200 μM, FIM 2 μM, medium B, Emmax 520 nm): 200%
- Change in Emmax for FIM at a particular D-glucose concentration (40 mM D-glucose, GBM15 200 μM, FIM 5 μM, medium B, Emmax 520 nm): 175%
- Change in Emmax for FIM at a particular D-glucose concentration (40 mM D-glucose, GBM15 200 μM, FIM 10 μM, medium B, Emmax 520 nm): 130%
- Change in Emmax for FIM at a particular D-glucose concentration (60 mM D-glucose, GBM15 50 μM, FIM 0.5 μM, medium B, Emmax 520 nm): 310%
- Change in Emmax for FIM at a particular D-glucose concentration (60 mM D-glucose, GBM15 50 μM, FIM 5 μM, medium B, Emmax 520 nm): 225%
- Change in Emmax for FIM at a particular D-glucose concentration (60 mM D-glucose, GBM15 200 μM, FIM 2 μM, medium B, Emmax 520 nm): 215%
- Change in Emmax for FIM at a particular D-glucose concentration (60 mM D-glucose, GBM15 200 μM, FIM 5 μM, medium B, Emmax 520 nm): 190%
- Change in Emmax for FIM at a particular D-glucose concentration (60 mM D-glucose, GBM15 200 μM, FIM 10 μM, medium B, Emmax 520 nm): 160%
- Change in Emmax for FIM at a particular D-glucose concentration (80 mM D-glucose, GBM15 50 μM, FIM 5 μM, medium B, Emmax 520 nm): 235%
- Change in Emmax for FIM at a particular D-glucose concentration (80 mM D-glucose, GBM15 200 μM, FIM 5 μM, medium B, Emmax 520 nm): 200%
- Change in Emmax for FIM at a particular D-glucose concentration (80 mM D-glucose, GBM15 200 μM, FIM 10 μM, medium B, Emmax 520 nm): 170%

SMILES: O=C(CNC(=O)[C@H](Cc1cn(CCOCCOCCOCCOc2ccc(CCO[C@@H]3O[C@H](CO)[C@@H](O)[C@H](O)[C@H]3O)cc2)nn1)NC(=O)CCCC[C@@H]1SC[C@@H]2NCN[C@@H]21)Nc1ccc2c(c1)C(=O)OC21c2ccc(O)cc2Oc2cc(O)ccc21 [FIM35]
- Change in Emmax for FIM at a particular D-glucose concentration (20 mM D-glucose, GBM29 50 μM, FIM 1 μM, medium B, Emmax 520 nm): 60%
- Change in Emmax for FIM at a particular D-glucose concentration (20 mM D-glucose, GBM29 50 μM, FIM 1 μM, medium B, Emmax 520 nm, separate GBM and FIM components mixed with 0.25 molar equivalents of streptavidin tetramer prior to formulation of assay): 40%

SMILES: C[N+](C)(C)[C@@H](CCCCNC(=O)[C@@H](N)CCCCn1cc(CNC(=O)c2ccc3c(c2)C2(OC3=O)c3ccc(N)c(S(=O)(=O)O)c3Oc3c2ccc(N)c3S(=O)(=O)O)nn1)C(=O)Nc1ccc(CCO[C@@H]2O[C@H](CO)[C@@H](O)[C@H](O)[C@H]2O)cc1 [FIM39]
- Change in Emmax for FIM at a particular D-glucose concentration (5 mM D-glucose, GBM7 30 μM, FIM 1 μM, medium B, Emmax 520 nm): 95%
- Change in Emmax for FIM at a particular D-glucose concentration (10 mM D-glucose, GBM7 30 μM, FIM 1 μM, medium B, Emmax 520 nm): 115%
- Change in Emmax for FIM at a particular D-glucose concentration (20 mM D-glucose, GBM7 30 μM, FIM 1 μM, medium B, Emmax 520 nm): 120%

SMILES: CC(C)(C)OC(=O)N[C@@H](Cc1cn(CCCC[C@@H](C(=O)NCC(CO[C@@H]2O[C@H](CO)[C@@H](O)[C@H](O)[C@H]2O)c2ccccc2)[N+](C)(C)C)nn1)C(=O)NCCOCCOCCn1cc(CNC(=O)c2ccc3c(c2)C(=O)OC32c3ccc(N)c(S(=O)(=O)[O-])c3Oc3c2ccc(N)c3S(=O)(=O)O)nn1 (stereo partly drawn) [FIM50]
- Change in Emmax for FIM at a particular D-glucose concentration (5 mM D-glucose, GBM7 50 μM, FIM 2 μM, medium B, Emmax 520 nm): 140%
- Change in Emmax for FIM at a particular D-glucose concentration (5 mM D-glucose, GBM15 100 μM, FIM 2 μM, medium B, Emmax 520 nm): 50%
- Change in Emmax for FIM at a particular D-glucose concentration (10 mM D-glucose, GBM7 50 μM, FIM 2 μM, medium B, Emmax 520 nm): 180%
- Change in Emmax for FIM at a particular D-glucose concentration (10 mM D-glucose, GBM15 100 μM, FIM 2 μM, medium B, Emmax 520 nm): 70%
- Change in Emmax for FIM at a particular D-glucose concentration (20 mM D-glucose, GBM7 50 μM, FIM 2 μM, medium B, Emmax 520 nm): 200%
- Change in Emmax for FIM at a particular D-glucose concentration (20 mM D-glucose, GBM15 100 μM, FIM 2 μM, medium B, Emmax 520 nm): 90%
